Measured values taken from US11654140B2, “Treatment of ocular inflammatory diseases using laquinimod” (Active Biotech AB, priority 2012, dated 2023).

How the values were obtained:
[1] = test system: S-antigen-induced uveitis in albino rats; test: Ocular vs oral laquinimod in S-antigen-induced uveitis in albino rats, histological analysis (Example 10); assay type: in vivo, rat; details: for Histological ocular evaluation, % Inhibition: Day 19
[2] = test system: subject suffering from uveitis; test: Laquinimod for treating uveitis (Example 4); assay type: in vivo; details: laquinimod composition administered to the eye, once daily
Experimental: In the examples 4-9 below, the administration of the composition is once daily. The administration can be repeated daily for a period of one, two, three or four days, up to 14 days, or longer as necessary. A laquinimod composition as described herein is administered to the eye of a subject suffering from uveitis. The administration of the composition is effective to treat the subject suffering from uveitis. The administration of the composition is also effective to reduce intraocular inflammation in the subject. The administration of the composition is also effective to reduce retina tissue destruction in the subject.

[3] = test system: subject suffering from bacterial conjunctivitis; test: Laquinimod for treating bacterial conjunctivitis (Example 5); assay type: in vivo; details: laquinimod composition, once daily
Experimental: (§1) In the examples 4-9 below, the administration of the composition is once daily. The administration can be repeated daily for a period of one, two, three or four days, up to 14 days, or longer as necessary.
(§2) A laquinimod composition as described herein is administered to a subject suffering from bacterial conjunctivitis. The administration of the composition is effective to treat the subject suffering from bacterial conjunctivitis. The administration of the composition is also effective to reduce intraocular inflammation in the subject.

[4] = test system: subject suffering from viral conjunctivitis; test: Laquinimod for treating viral conjunctivitis (Example 6); assay type: in vivo; details: laquinimod composition, once daily
Experimental: as §1
as §2, with “viral” for “bacterial”

[5] = test system: subject suffering from allergic conjunctivitis; test: Laquinimod for treating allergic conjunctivitis (Example 8); assay type: in vivo; details: 0.2 mg-0.5 mg laquinimod/day
Experimental: as §1
A laquinimod composition as described herein is administered to a subject suffering from allergic conjunctivitis at 0.2 mg-0.5 mg laquinimod/day. The administration of the composition is effective to treat the subject suffering from allergic conjunctivitis. The administration of the composition is also effective to reduce intraocular inflammation in the subject. The administration of the composition is also effective to inhibit late ocular anaphylaxis in the subject. The administration of the composition is also effective reduce eosinophil infiltration into the conjunctiva of the subject.

[6] = test system: subject suffering from an OID; test: Laquinimod for treating OID (Example 9); assay type: in vivo; details: laquinimod composition, once daily
Experimental: as §1
A laquinimod composition as described herein is administered to a subject suffering from an OID. The administration of the composition is effective to treat the subject suffering from the OID. The administration of the composition is also effective to reduce intraocular inflammation in the subject.

[7] = 1%, 1× 10 μl instillation/day for 7 days in both eyes
[8] = 1%, 1×/day for 7 days, 1 mL/kg, per os
[9] = 5%, 1× 10 μl instillation/day for 7 days in both eyes
[10] = 5%, 1×/day for 7 days, 1 mL/kg, per os

CCN(C(=O)c1c(O)c2c(Cl)cccc2n(C)c1=O)c1ccccc1 [Laquinimod, laquinimod]
Histological ocular evaluation (scale 0-7) Both Eyes/Day 19, mean [1, 7]: 2.8 | Histological ocular evaluation, % Inhibition [1, 7]: 7.00% | Histological ocular evaluation (scale 0-7) Both Eyes/Day 19, mean [1, 8]: 2.3 | Histological ocular evaluation, % Inhibition [1, 8]: 23.00% | Histological ocular evaluation (scale 0-7) Both Eyes/Day 19, mean [1, 9]: 1.8 | Histological ocular evaluation, % Inhibition [1, 9]: 40.00% | Histological ocular evaluation (scale 0-7) Both Eyes/Day 19, mean [1, 10]: 1.2 | Histological ocular evaluation, % Inhibition [1, 10]: 60.00% | treat the subject suffering from uveitis [2]: effective | reduce intraocular inflammation in the subject ([2]; uveitis): effective | reduce retina tissue destruction in the subject ([2]; uveitis): effective | treat the subject suffering from bacterial conjunctivitis [3]: effective | reduce intraocular inflammation in the subject ([3]; bacterial conjunctivitis): effective | treat the subject suffering from viral conjunctivitis [4]: effective | reduce intraocular inflammation in the subject ([4]; viral conjunctivitis): effective | treat the subject suffering from allergic conjunctivitis [5]: effective | inhibit late ocular anaphylaxis in the subject ([5]; allergic conjunctivitis): effective | reduce eosinophil infiltration into the conjunctiva of the subject ([5]; allergic conjunctivitis): effective | reduce intraocular inflammation in the subject ([5]; allergic conjunctivitis): effective | treat the subject suffering from the OID [6]: effective | reduce intraocular inflammation in the subject ([6]; OID): effective
